Experimental data published in patent US8835484B2, “Naphthocyanines for use as contrast agents” (Alamedics GmbH & Co. KG, priority 2010, dated 2014).
Where a name gives a salt, the structure may show the parent alone.

Columns and labels:
[1] = Fluorescence quantum yield; assay type: physicochemical; conditions: CHCl3; Reference: S-13 with Φ=1.00
From the text: IR spectra: Perkin Elmer Spectrum BX II, using a diamond anvil cell; UV/Vis spectra: Varian Cary 5000 and Bruins Omega 20; fluorescence spectra: Varian Eclispe; NMR spectroscopy: Varian Vnmrs 600 (600 MHz, 400 MHz, 200 MHz); mass spectrometry: Thermo Finnigan LQT FT.

[2] = Solid cyanine dye stability comparison; assay type: physicochemical; conditions: storage
From the text: Decomposition of the solid dye results in a red coloration of the solid and the solution. Carboxylic acid esters, especially methyl ester, are particularly sensitive in addition to the bromides.

lens capsule = assay: Dye tests on porcine eyes (lens capsule staining); set-up: key: +++: visually assessed very strong coloration; ++: good coloration; +: satisfactory coloration; −: weak or absent coloration; conditions: incubated, rinsed after one minute
Protocol: For the dye test, in each case 5 mg dye was dissolved in 500 μL ethanol and diluted to 2 mL with BSS Plus solution as the stock solution, and then correspondingly further diluted. As an alternative, one can prepare stock solutions of the dye by dissolving, for example, 5 mg dye in 1 mL distilled water, adding 7 mL BSS solution and then combining with 1 mL NaCl solution having an osmolality of 620 (approximately 2%) in order to restore the original osmolality of the BSS solution (308). This stock solution can be correspondingly further diluted with BSS solution as required. Enucleated porcine eyes were used having a post mortem time period of a few hours. To dye the lens capsule, the cornea was first removed. Thereafter, the iris was resected and the capsular support was severed. The lens with intact lens capsule was removed and placed in a bowl filled with BSS. The lenses were thereafter incubated with the dyes according to the invention at various concentrations and then rinsed after one minute. The dye pattern was photographically documented, whereby the coloration was assessed without additional illumination, and fluorescence was assessed with illumination (Xenon lamp, halogen lamp with typical endoillumination source and fiber optics). The lens capsule is a very good model for dyeing due to the fact that it is a basal membrane, as is the ILM of the retina. Both structures are important target structures in eye surgery.

With CC1(C)C(/C=C/C=C2\N(CCCCS(=O)(=O)O)c3ccc4ccccc4c3C2(C)C)=[N+](CCCCS(=O)(=O)[O-])c2ccc3ccccc3c21 (as salt: bromide) [Dye 3t, 3,3′-Di-(4-sulfobutyl)-1,1,1′,1′-tetramethyl-1H-dibenzo[e]indocarbocyanine bromide] the melting point was over 250 °C.

CC1(C)C(/C=C/C=C2\N(CCCCS(=O)(=O)[O-])c3ccc4c(S(=O)(=O)O)cccc4c3C2(C)C)=[N+](CCCCS(=O)(=O)O)c2ccc3c(S(=O)(=O)O)cccc3c21 (as salt: bromide) [Dye 6a, 3,3′-Di-(4-sulfobutyl)-1,1,1′,1′-tetramethyl-1H-disulfobenzo[e]indocarbocyanine bromide] showed a melting point of over 150 °C.

In the case of CC1(C)C(/C=C/C=C2\N(CCC(=O)O)c3ccc4ccccc4c3C2(C)C)=[N+](CCC(=O)O)c2ccc3ccccc3c21.[Br-] (hydrate or solvate) [Dye 3a, 3,3′-Di-(2-carboxyethyl)-1,1,1′,1′-tetramethyl-1H-dibenzo[e]indocarbocyanine bromide], the melting point is reported as 199 °C.

In the case of CC1(C)C(=CC=CC2=[N+](CCCCCS(=O)(=O)O)c3ccc4ccccc4c3C2(C)C)N(CCCCCS(=O)(=O)O)c2ccc3ccccc3c21.[Br-] [Dye 3u, 3,3′-Di-(5-sulfopentyl)-1,1,1′,1′-tetramethyl-1H-dibenzo[e]indocarbocyanine bromide], the Fluorescence quantum yield [1] is reported as 0.13, the Stability [2] is reported as “No decomposition after 4 months” and the “coloration of lens capsule” value (lens capsule; dye concentration 0.5%) is reported as “−”. The “coloration of lens capsule” value (lens capsule; dye concentration 1.0) was “+”.

With CC1(C)C(=CC=CC2=[N+](CCCCCCCCCCS(=O)(=O)O)c3ccc4ccccc4c3C2(C)C)N(CCCCCCCCCCS(=O)(=O)O)c2ccc3ccccc3c21.[Br-] [Dye 3v, 3,3′-Di-(10-sulfodecyl)-1,1,1′,1′-tetramethyl-1H-dibenzo[e]indocarbocyanine bromide] the Fluorescence quantum yield [1] was 0.14, the Stability [2] was “No decomposition after 4 months” and the “coloration of lens capsule” value (lens capsule; dye concentration 0.5%) was “−”. For the same compound, the “coloration of lens capsule” value (lens capsule; dye concentration 1.0) was “−”.

With CC1(C)C(/C=C/C=C2\N(CCCCS(=O)(=O)[O-])c3ccc4c(S(=O)(=O)O)cccc4c3C2(C)C)=[N+](CCCCS(=O)(=O)O)c2ccc3c(S(=O)(=O)O)cccc3c21 [Dye 6a, 3,3′-Di-(4-sulfobutyl)-1,1,1′,1′-tetramethyl-1H-disulfobenzo[e]indocarbocyanine bromide] the Fluorescence quantum yield [1] was 0.33, the Stability [2] was “No decomposition after 4 months” and the “coloration of lens capsule” value (lens capsule; dye concentration 0.5%) was “+++”. For the same compound, the “coloration of lens capsule” value (lens capsule; dye concentration 1.0) was “+++”.

For CC1(C)C(/C=C/C=C2\N(CCC(=O)O)c3ccc4c(S(=O)(=O)O)cccc4c3C2(C)C)=[N+](CCC(=O)O)c2ccc3c(S(=O)(=O)O)cccc3c21.[Br-] [Dye 6b, 3,3′-Di-(2-carboxyethyl)-1,1,1′,1′-tetramethyl-1H-disulfobenzo[e]indocarbocyanine bromide], the Fluorescence quantum yield [1] was 0.21, the Stability [2] was “Decomposition after a few days” and the “coloration of lens capsule” value (lens capsule; dye concentration 0.5%) was “+++”. For the same compound, the “coloration of lens capsule” value (lens capsule; dye concentration 1.0) was “+++” and the melting point was > 180 °C (dec.).

With CC1(C)C(/C=C/C=C2\N(CCCCCCCCCCC(=O)O)c3ccc4c(S(=O)(=O)O)cccc4c3C2(C)C)=[N+](CCCCCCCCCCC(=O)O)c2ccc3c(S(=O)(=O)O)cccc3c21.[Br-] [Dye 6c, 3,3′-Di-(10-carboxydecyl)-1,1,1′,1′-tetramethyl-1H-disulfobenzo[e]indocarbocyanine bromide] the Fluorescence quantum yield [1] was 0.31, the Stability [2] was “No decomposition after 3 months” and the “coloration of lens capsule” value (lens capsule; dye concentration 0.5%) was “++”. The “coloration of lens capsule” value (lens capsule; dye concentration 1.0) was “++” and the melting point was > 150 °C (dec.).

For CCCCCN1/C(=C\C=C\C2=[N+](CCCCC)c3ccc4ccccc4c3C2(C)C)C(C)(C)c2c1ccc1ccccc21.[Br-] [Dye 6j, 3,3′-Di-(pentyl)-1,1,1′,1′-tetramethyl-1H-dibenzo[e]indocarbocyanine bromide], the Fluorescence quantum yield [1] was 0.20 and the melting point was > 150 °C (dec.).
